Results on 13 compounds are retold here after patent US9499550B2 (BRISTOL-MYERS SQUIBB COMPANY, priority 2012, dated 2016).

In assay [1] the test system is HCV genotype 1b (Con1) replicon in HUH-7 cells. As to the kind of experiment: HCV replicon luciferase reporter assay, genotype 1b. It counts as cell-based. The conditions noted are these: Hepatitis C virus, Huh-7, 72 h, HCV genotype 1b replicon luciferase, 3 days incubation. The procedure, abridged: (§1)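 Replicon inhibition for both genotypes was measured as Renilla luciferase signal (EnduRen, 7.5 μM final, 2 h) after 3-day, 37° C exposure of replicon-bearing HUH-7 cells in 4% FCS DMEM, 0.5% DMSO. The 1b construct carries S1179I; the 1a H77 construct carries P1496L and S2204I. Twenty-point, 3-fold dilutions were fitted four-parametrically for EC50, and CC50 was taken from multiplexed Cell Titer-Blue.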
A general note: Replicon systems follow genome replication, usually without infectious particles.

Assay [2] relates to HCV genotype 1a (H77 strain) replicon in HUH-7 cells. As to the kind of experiment: HCV replicon luciferase reporter assay, genotype 1a. It counts as cell-based. The note with it: Hepatitis C virus, Huh-7, 72 h, HCV genotype 1a replicon luciferase, 3 days incubation. The procedure, abridged: as §1

Like-named read-outs stand apart in the source and are kept apart here.

What is called EC50 is the concentration that produces a half-maximal response. On to `CCn1nc(O[C@@H]2C[C@H]3C(=O)N[C@]4(C(=O)NS(=O)(=O)C5(C)CC5)C[C@H]4/C=C\CC[C@H](C)C[C@@H](C)[C@H](NC(=O)c4ccc(N(C)C)cc4)C(=O)N3C2)c2ccccc2c1=O` [Compound 5060, (2R,6S,7R,9S,13aS,14aR,16aS,Z)-6-(4-(dimethylamino)benzamido)-2-((3-ethyl-4-oxo-3,4-dihydrophthalazin-1-yl)oxy)-7,9-dimethyl-N-((1-methylcyclopropyl)sulfonyl)-5,16-dioxo-1,2,3,5,6,7,8,9,10,11,13a,14,14a,15,16,16a-hexadecahydrocyclopropa[e]pyrrolo[1,2-a][1,4]diazacyclopentadecine-14a-carboxamide], for which the EC50 is 0.95 µM in assay [1] (read-out: LE_1b (EC50)); over 0.0874 µM in assay [1] (read-out: LE_1b (EC50, range)); at least 1 µM in assay [2] (read-out: LE_1a (EC50)); over 0.0874 µM in assay [2] (read-out: LE_1a (EC50, range)).
In the case of `CCn1nc(O[C@@H]2C[C@H]3C(=O)N[C@]4(C(=O)NS(=O)(=O)C5(C)CC5)C[C@H]4/C=C\CC[C@@H](C)C[C@@H](C)[C@H](NC(=O)c4ccc(N(C)C)cc4)C(=O)N3C2)c2ccccc2c1=O` [Compound 5061, (2R,6S,7R,9R,13aS,14aR,16aS,Z)-6-(4-(dimethylamino)benzamido)-2-((3-ethyl-4-oxo-3,4-dihydrophthalazin-1-yl)oxy)-7,9-dimethyl-N-((1-methylcyclopropyl)sulfonyl)-5,16-dioxo-1,2,3,5,6,7,8,9,10,11,13a,14,14a,15,16,16a-hexadecahydrocyclopropa[e]pyrrolo[1,2-a][1,4]diazacyclopentadecine-14a-carboxamide], the EC50 is 0.00482 to 0.103 µM in assay [1] (read-out: LE_1b (EC50, range)) and 0.00482 to 0.103 µM in assay [2] (read-out: LE_1a (EC50, range)).
For `CCn1nc(O[C@@H]2C[C@H]3C(=O)N[C@]4(C(=O)NS(=O)(=O)C5(C)CC5)C[C@H]4/C=C\CC[C@H](C)C[C@@H](C)[C@H](NC(=O)C(=O)N(C)C)C(=O)N3C2)c2ccccc2c1=O` [Compound 5062, N1-((2R,6S,7R,9S,13aS,14aR,16aS,Z)-2-((3-ethyl-4-oxo-3,4-dihydrophthalazin-1-yl)oxy)-7,9-dimethyl-14a-(((1-methylcyclopropyl)sulfonyl)carbamoyl)-5,16-dioxo-1,2,3,5,6,7,8,9,10,11,13a,14,14a,15,16,16a-hexadecahydrocyclopropa[e]pyrrolo[1,2-a][1,4]diazacyclopentadecin-6-yl)-N2,N2-dimethyloxalamide], the EC50 is 1 µM in assay [1] (read-out: LE_1b (EC50)); over 0.0874 µM in assay [1] (read-out: LE_1b (EC50, range)); at least 1 µM in assay [2] (read-out: LE_1a (EC50)); over 0.0874 µM in assay [2] (read-out: LE_1a (EC50, range)).
On to `CCn1nc(O[C@@H]2C[C@H]3C(=O)N[C@]4(C(=O)NS(=O)(=O)C5(C)CC5)C[C@H]4/C=C\CC[C@@H](C)C[C@@H](C)[C@H](NC(=O)C(=O)N(C)C)C(=O)N3C2)c2ccccc2c1=O` [Compound 5063, N1-((2R,6S,7R,9R,13aS,14aR,16aS,Z)-2-((3-ethyl-4-oxo-3,4-dihydrophthalazin-1-yl)oxy)-7,9-dimethyl-14a-(((1-methylcyclopropyl)sulfonyl)carbamoyl)-5,16-dioxo-1,2,3,5,6,7,8,9,10,11,13a,14,14a,15,16,16a-hexadecahydrocyclopropa[e]pyrrolo[1,2-a][1,4]diazacyclopentadecin-6-yl)-N2,N2-dimethyloxalamide], for which the EC50 is 0.479 µM in assay [1] (read-out: LE_1b (EC50)); over 0.0874 µM in assay [1] (read-out: LE_1b (EC50, range)); at least 1 µM in assay [2] (read-out: LE_1a (EC50)); over 0.0874 µM in assay [2] (read-out: LE_1a (EC50, range)).
On to `CCn1nc(O[C@@H]2C[C@H]3C(=O)N[C@]4(C(=O)NS(=O)(=O)C5(C)CC5)C[C@H]4/C=C\CC[C@H](C)C[C@@H](C)[C@H](NC(=O)OC(C)(C)C)C(=O)N3C2)c2ccccc2c1=O` [Compound 5064, tert-butyl ((2R,6S,7R,9S,13aS,14aR,16aS,Z)-2-((3-ethyl-4-oxo-3,4-dihydrophthalazin-1-yl)oxy)-7,9-dimethyl-14a-(((1-methylcyclopropyl)sulfonyl)carbamoyl)-5,16-dioxo-1,2,3,5,6,7,8,9,10,11,13a,14,14a,15,16,16a-hexadecahydrocyclopropa[e]pyrrolo[1,2-a][1,4]diazacyclopentadecin-6-yl)carbamate], for which the EC50 in assay [1] (read-out: LE_1b (EC50, range)) is 0.00482 to 0.103 µM; in assay [2] (read-out: LE_1a (EC50, range)), over 0.0874 µM.
Take `CCn1nc(O[C@@H]2C[C@H]3C(=O)N[C@]4(C(=O)NS(=O)(=O)C5(C)CC5)C[C@H]4/C=C\CC[C@@H](C)C[C@@H](C)[C@H](NC(=O)OC(C)(C)C)C(=O)N3C2)c2ccccc2c1=O` [Compound 5065, tert-butyl ((2R,6S,7R,9R,13aS,14aR,16aS,Z)-2-((3-ethyl-4-oxo-3,4-dihydrophthalazin-1-yl)oxy)-7,9-dimethyl-14a-(((1-methylcyclopropyl)sulfonyl)carbamoyl)-5,16-dioxo-1,2,3,5,6,7,8,9,10,11,13a,14,14a,15,16,16a-hexadecahydrocyclopropa[e]pyrrolo[1,2-a][1,4]diazacyclopentadecin-6-yl)carbamate]: the EC50 in assay [1] (read-out: LE_1b (EC50, range)) was under 0.00546 µM; in assay [2] (read-out: LE_1a (EC50, range)), 0.00482 to 0.103 µM.
As to `CCn1nc(O[C@@H]2C[C@H]3C(=O)N[C@]4(C(=O)NS(=O)(=O)C5CC5)C[C@H]4/C=C\CC[C@H](C)C[C@@H](C)[C@H](NC(=O)OC(C)(C)C(F)(F)F)C(=O)N3C2)c2ccccc2c1=O` [Compound 5066, 1,1,1-trifluoro-2-methylpropan-2-yl((2R,6S,7R,9S,13aS,14aR,16aS,Z)-14a-((cyclopropylsulfonyl)carbamoyl)-2-((3-ethyl-4-oxo-3,4-dihydrophthalazin-1-yl)oxy)-7,9-dimethyl-5,16-dioxo-1,2,3,5,6,7,8,9,10,11,13a,14,14a,15,16,16a-hexadecahydrocyclopropa[e]pyrrolo[1,2-a][1,4]diazacyclopentadecin-6-yl)carbamate], the EC50 is over 0.0874 µM in assay [1] (read-out: LE_1b (EC50, range)) and over 0.0874 µM in assay [2] (read-out: LE_1a (EC50, range)).
Take `CCn1nc(O[C@@H]2C[C@H]3C(=O)N[C@]4(C(=O)NS(=O)(=O)C5CC5)C[C@H]4/C=C\CC[C@@H](C)C[C@@H](C)[C@H](NC(=O)OC(C)(C)C(F)(F)F)C(=O)N3C2)c2ccccc2c1=O` [Compound 5067, 1,1,1-trifluoro-2-methylpropan-2-yl((2R,6S,7R,9R,13aS,14aR,16aS,Z)-14a-((cyclopropylsulfonyl)carbamoyl)-2-((3-ethyl-4-oxo-3,4-dihydrophthalazin-1-yl)oxy)-7,9-dimethyl-5,16-dioxo-1,2,3,5,6,7,8,9,10,11,13a,14,14a,15,16,16a-hexadecahydrocyclopropa[e]pyrrolo[1,2-a][1,4]diazacyclopentadecin-6-yl)carbamate]: the EC50 in assay [1] (read-out: LE_1b (EC50, range)) was in the range of 0.00482 to 0.103 µM; in assay [2] (read-out: LE_1a (EC50, range)), 0.00482 to 0.103 µM.
Consider `[2H]C([2H])([2H])C(OC(=O)N[C@@H]1C(=O)N2C[C@H](Oc3nn(CC)c(=O)c4ccccc34)C[C@H]2C(=O)N[C@]2(C(=O)NS(=O)(=O)C3CC3)C[C@H]2/C=C\CC[C@H](C)C[C@H]1C)(C([2H])([2H])[2H])C(F)(F)F` [Compound 5068], for which the EC50 was over 0.0874 µM in assay [1] (read-out: LE_1b (EC50, range)) and over 0.0874 µM in assay [2] (read-out: LE_1a (EC50, range)).
For `[2H]C([2H])([2H])C(OC(=O)N[C@@H]1C(=O)N2C[C@H](Oc3nn(CC)c(=O)c4ccccc34)C[C@H]2C(=O)N[C@]2(C(=O)NS(=O)(=O)C3CC3)C[C@H]2/C=C\CC[C@@H](C)C[C@H]1C)(C([2H])([2H])[2H])C(F)(F)F` [Compound 5069], the EC50 was 0.00721 µM in assay [1] (read-out: LE_1b (EC50)); 0.00482 to 0.103 µM in assay [1] (read-out: LE_1b (EC50, range)); 0.0149 µM in assay [2] (read-out: LE_1a (EC50)); 0.00482 to 0.103 µM in assay [2] (read-out: LE_1a (EC50, range)).
As for `CCn1nc(O[C@@H]2C[C@H]3C(=O)N[C@]4(C(=O)NS(=O)(=O)C5CC5)C[C@H]4/C=C\CC[C@@H](C)C[C@@H](C)[C@H](NC(=O)O[C@@H]4C[C@@H]5C[C@@H]5C4)C(=O)N3C2)c2ccccc2c1=O` [Compound 5070, (1R,3r,5S)-bicyclo[3.1.0]hexan-3-yl((2R,6S,7R,9R,13aS,14aR,16aS,Z)-14a-((cyclopropylsulfonyl)carbamoyl)-2-((3-ethyl-4-oxo-3,4-dihydrophthalazin-1-yl)oxy)-7,9-dimethyl-5,16-dioxo-1,2,3,5,6,7,8,9,10,11,13a,14,14a,15,16,16a-hexadecahydrocyclopropa[e]pyrrolo[1,2-a][1,4]diazacyclopentadecin-6-yl)carbamate], the EC50 in assay [1] (read-out: LE_1b (EC50, range)) was under 0.00546 µM; in assay [2] (read-out: LE_1a (EC50, range)), 0.00482 to 0.103 µM.
Consider `CCn1nc(O[C@@H]2C[C@H]3C(=O)N[C@]4(C(=O)NS(=O)(=O)C5CC5)C[C@H]4/C=C\CC[C@H](C)C[C@@H](C)[C@H](NC(=O)NC(C)(C)C)C(=O)N3C2)c2ccccc2c1=O` [Compound 5071, (2R,6S,7R,9S,13aS,14aR,16aS,Z)-6-(3-(tert-butyl)ureido)-N-(cyclopropylsulfonyl)-2-((3-ethyl-4-oxo-3,4-dihydrophthalazin-1-yl)oxy)-7,9-dimethyl-5,16-dioxo-1,2,3,5,6,7,8,9,10,11,13a,14,14a,15,16,16a-hexadecahydrocyclopropa[e]pyrrolo[1,2-a][1,4]diazacyclopentadecine-14a-carboxamide], for which the EC50 in assay [1] (read-out: LE_1b (EC50)) was 1 µM; in assay [1] (read-out: LE_1b (EC50, range)) it was over 0.0874 µM; in assay [2] (read-out: LE_1a (EC50)), at least 1 µM; in assay [2] (read-out: LE_1a (EC50, range)) it was over 0.0874 µM.
On to `CCn1nc(O[C@@H]2C[C@H]3C(=O)N[C@]4(C(=O)NS(=O)(=O)C5CC5)C[C@H]4/C=C\CC[C@@H](C)C[C@@H](C)[C@H](NC(=O)NC(C)(C)C)C(=O)N3C2)c2ccccc2c1=O` [Compound 5072, (2R,6S,7R,9R,13aS,14aR,16aS,Z)-6-(3-(tert-butyl)ureido)-N-(cyclopropylsulfonyl)-2-((3-ethyl-4-oxo-3,4-dihydrophthalazin-1-yl)oxy)-7,9-dimethyl-5,16-dioxo-1,2,3,5,6,7,8,9,10,11,13a,14,14a,15,16,16a-hexadecahydrocyclopropa[e]pyrrolo[1,2-a][1,4]diazacyclopentadecine-14a-carboxamide], for which the EC50 in assay [1] (read-out: LE_1b (EC50, range)) was 0.00482 to 0.103 µM; in assay [2] (read-out: LE_1a (EC50, range)), over 0.0874 µM.
